Measured values reported in patent US20170152245A1 (National Taiwan University, priority 2015, published 2017).

Columns and labels:
[1] = tested on: human platelet-rich plasma; assay: Arachidonic acid-induced platelet aggregation in human platelet-rich plasma; type: cell-based; details: arachidonic acid 200 μM
Experimental: (§1) Human platelet suspension (PS) was prepared according to the method described previously. Briefly, blood sample, freshly obtained from healthy volunteers who had taken no medications during the preceding 2 weeks, was treated with acid citrate/dextrose (ACD) in a volume ratio of 9:1. After centrifugation at 120 g, 25° C. for 9 min, platelet-rich plasma was transferred into another plastic tube and incubated with heparin (6.4 U/ml) as well as prostaglandin E1 (1 μM). Platelets were spun down by centrifugation at 500 g, 25° C. for 8 min and subsequently washed two times with Tyrode solution (NaH2PO4 0.4 mM; NaCl 136.9 mM; KCl […]; NaHCO3 11.9 mM; CaCl2 2 mM; MgCl2 2.1 mM; glucose 11.1 mM; BSA 3.5 mg/ml; pH 7.35-7.4). The washed platelets were finally suspended in Tyrode's solution and the platelet count was adjusted to 3.75×10^8 platelets/ml. For platelet-rich plasma (PRP) preparation, whole blood was anticoagulated with 1/10 vol of sodium citrate (3.8%, w/v) and centrifuged at 150 g, 25° C. for 9 min.
(§2) Platelet aggregation was measured turbidimetrically with a Lumi-aggregometer (Payton Scientific) at 37° C. under stirring condition (900 rpm). […] The extent of platelet aggregation was determined by recording the increase of light transmission relative to that of control (maximal aggregation, as 100%) for 6 min after the addition of inducer. […]

[2] = tested on: mouse PRP; assay: Ex vivo mouse PRP aggregation caused by U46619; type: in vivo, mice; details: 10 μg/g i.v.; U46619 0.125 μM; compared to nstpbp5185
Experimental: Mice were i.v. injected with vehicle, nstpbp5185 (10 μg/g) or Ctkf6f2 (10 μg/g). The blood samples were collected within 10 mins by intracardiac puncture for PRP, and U46619 (0.125 μM) was added. Platelet aggregation was measured turbidimetrically using platelet aggregometer. Shown are representative of three independent experiments.
Furthermore, the platelet aggregation was evaluated on ex vivo mouse model. The mouse was i.v. administered with compound 5185 (10 μg/g) or Ctkf6f2 (10 μg/g), compared to the vehicle-treated control. The blood was collected and evaluated for its response to U46619 (0.125 μM) on the aggregometer (FIG. 10).

[3] = tested on: human platelet suspension; assay: Thrombin-induced platelet aggregation in human platelet suspension; type: cell-based; details: data not shown
Experimental: as §1, §2

[4] = tested on: rats; assay: Gastric damage in rats; type: in vivo; details: 40 μg g^−1 oral, 3 h
Experimental: Rats (Wistar) were fasted overnight then given aspirin at dose of 150 mg/kg or nstpbp5185 at 40 mg/kg. Both drugs were suspended in 1% carboxymethylcellulose. Three hours later, the rats were sacrificed, the stomach excised, and the extent of hemorrhagic erosions scored by an observer unaware of treatment the rats received. Each lesion larger than 2 mm was counted for comparison. The stomach was fixed in formalin (pH, 7.4) and photographed.

[5] = tested on: rat carotid artery; assay: Balloon-injury rat carotid artery model (neointima formation); type: in vivo; details: 1 or 2 mg/kg/day intraperitoneally for 2 weeks; rats
Experimental: We used the established rat carotid artery (CA) model of balloon angioplasty to examine the in vivo arterial response to injury^20. Briefly, male Wistar rats weighing 350-400 g were anesthetized with intraperitoneal pentobarbital (50 mg/kg), and the left CA was exposed. A Fogarty 2F embolectomy balloon catheter was inserted into the left external carotid artery through arteriotomy incision and advanced to the aortic arch. The balloon was inflated and withdrawn three times with rotation at the same pressure. Followed by removal of the catheter, the external carotid artery was ligated and the wound closed. Animals were given standard rat chow and tap water, and i.p. administered 1 and 2 mg/kg or vehicle daily for 2 weeks, at which time they were sacrificed, and the sections from both the right and left (collateral control group) CA were harvested to fix with 4% paraformaldehyde in PBS overnight for study. All procedures involving animal experiments were approved by the Institutional Animal Care and Use Committee of Collagen of Medicine, National Taiwan University.
We further determined the inhibitory effect of nstpbp5185 on neointima formation after carotid artery injury. […] (FIG. 16G) Data are quantified by the neointima/media ratio of common carotid arteries after balloon injury. […]

In the case of `Cc1ccc(-c2nc3ccc(F)cc3n2Cc2cccc(F)c2)o1` [Ctkf6f2, 6-fluoro-1-(3-fluorobenzyl)-2-(5-methyl-2-furyl)benzimidazole], the IC50 [1] is reported as 8.87 ± 2.52 µM and the “inhibition of platelet aggregation of PRP induced by U46619, ex vivo” value [2] is reported as “superior inhibition”.
With `Cc1ccc(-c2nc3ccccc3n2Cc2ccccc2)o1` [Example 6, 1-Benzyl-2-(5-methyl-2-furyl)benzimidazole] the “effect on platelet aggregation caused by thrombin” value [3] was “little effects”, the “gastric lesions (>2 mm)” value [4] was “did not cause significant lesion” and the “N/M ratio (neointima/media)” value [5] was “significantly inhibited”.
